Laboratory results taken from patent publication US9115137B2, “2,3,4,5-tetrahydro-1H-pyrido[4,3-B]indole compounds and methods of use thereof” (priority 2008, dated 2015).

Assays:
[1] = target: T1, human recombinant adrenergic α2B receptor (Homo sapiens, UniProt P18089); experiment: Adrenergic α2B radioligand binding ([3H]Rauwolscine); settings: compound at 1 μM; CHO-K1 cells; read-out: Adrenergic (1 μM) α2B, percent inhibition of specific binding
T1 construct: expressed in transfected cells; host or cells: CHO-K1 cells
T1 sequence (P18089 1-450): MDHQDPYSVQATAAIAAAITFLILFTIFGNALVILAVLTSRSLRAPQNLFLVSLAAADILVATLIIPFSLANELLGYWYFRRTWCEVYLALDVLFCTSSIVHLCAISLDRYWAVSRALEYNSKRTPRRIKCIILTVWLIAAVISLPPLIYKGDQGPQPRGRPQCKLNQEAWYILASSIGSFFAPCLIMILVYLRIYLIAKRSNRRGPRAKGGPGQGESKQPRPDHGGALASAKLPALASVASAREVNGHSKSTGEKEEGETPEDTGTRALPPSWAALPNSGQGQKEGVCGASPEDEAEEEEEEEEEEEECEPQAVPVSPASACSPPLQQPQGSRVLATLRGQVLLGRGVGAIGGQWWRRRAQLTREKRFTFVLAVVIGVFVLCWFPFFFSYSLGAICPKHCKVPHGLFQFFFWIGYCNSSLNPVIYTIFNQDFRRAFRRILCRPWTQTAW
Method: To evaluate in radioligand binding assays the activity of compounds of the invention, human recombinant adrenergic α2B receptor expressed in Chinese hamster ovary (CHO-K1) cells (Uhlen S et al. Eur. J. Pharmacol. 343(1):93, 1998) in a modified Tris-HCl buffer (50 mM Tris-HCl, pH 7.4, 12.5 mM MgCl2, 1 mM EDTA, 0.2% BSA) was used. Compounds of the invention were incubated with 2.5 nM [3H]Rauwolscine for 60 minutes at 25° C. Non-specific binding was estimated in the presence of 10 μM Prozosin. Receptor proteins were filtered and washed, the filters were then counted to determine [^3H]Rauwolscine specifically bound. Compounds were screened at 1 μM or lower, using 1% DMSO as vehicle. Biochemical assay results are presented as the percent inhibition of specific binding in Table 6.

[2] = target: T2, human recombinant serotonin (5-Hydroxytryptamine) 5-HT2C receptor (Homo sapiens, UniProt P28335); experiment: Serotonin 5-HT2C radioligand binding ([3H]Mesulergine); settings: compound at 1 μM; CHO-K1 cells; read-out: Serotonin (1 μM) 5-HT2C, percent inhibition of specific binding
T2 construct: expressed in transfected cells; host or cells: CHO-K1 cells
T2 sequence (P28335 33-458): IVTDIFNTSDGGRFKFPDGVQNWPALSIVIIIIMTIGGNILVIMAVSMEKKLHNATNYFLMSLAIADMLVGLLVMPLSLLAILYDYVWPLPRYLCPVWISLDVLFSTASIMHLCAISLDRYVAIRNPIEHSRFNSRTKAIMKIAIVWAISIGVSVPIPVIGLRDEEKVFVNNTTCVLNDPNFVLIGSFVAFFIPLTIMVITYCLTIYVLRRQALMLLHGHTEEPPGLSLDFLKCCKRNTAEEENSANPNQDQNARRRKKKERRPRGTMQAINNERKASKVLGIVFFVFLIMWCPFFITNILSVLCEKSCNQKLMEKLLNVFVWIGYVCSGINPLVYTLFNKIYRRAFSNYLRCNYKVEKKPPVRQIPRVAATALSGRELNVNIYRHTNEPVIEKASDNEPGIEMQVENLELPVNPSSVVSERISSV
Method: To evaluate in radioligand binding assays the activity of compounds of the invention, human recombinant serotonin (5-Hydroxytryptamine) 5-HT2C receptor expressed in Chinese hamster ovary (CHO-K1) cells (Wolf, W. A. and Schutz, J. S., J. Neurochem. 69:1449, 1997) in a modified Tris-HCl buffer (50 mM Tris-HCl, pH 7.4, 0.1% Ascorbic Acid, 10 μM Pargyline) was used. Compounds of the invention were incubated with 1 nM [^3H]Mesulergine for 60 minutes at 25° C. Non-specific binding was estimated in the presence of 1 μM Mianserin. Receptor proteins were filtered and washed, the filters were then counted to determine [^3H]Mesulergine specifically bound. Compounds were screened at 1 μM or lower, using 1% DMSO as vehicle. Biochemical assay results are presented as the percent inhibition of specific binding in Table 7.

[3] = target: T3, human recombinant histamine H1 receptor (Homo sapiens, UniProt P35367); experiment: Histamine H1 radioligand binding ([3H]Pyrilamine); settings: compound at 1 μM; CHO cells; read-out: Histamine Binding (1 μM) H1, percent inhibition of specific binding
T3 construct: expressed in transfected cells; host or cells: CHO cells
T3 sequence (P35367 whole entry): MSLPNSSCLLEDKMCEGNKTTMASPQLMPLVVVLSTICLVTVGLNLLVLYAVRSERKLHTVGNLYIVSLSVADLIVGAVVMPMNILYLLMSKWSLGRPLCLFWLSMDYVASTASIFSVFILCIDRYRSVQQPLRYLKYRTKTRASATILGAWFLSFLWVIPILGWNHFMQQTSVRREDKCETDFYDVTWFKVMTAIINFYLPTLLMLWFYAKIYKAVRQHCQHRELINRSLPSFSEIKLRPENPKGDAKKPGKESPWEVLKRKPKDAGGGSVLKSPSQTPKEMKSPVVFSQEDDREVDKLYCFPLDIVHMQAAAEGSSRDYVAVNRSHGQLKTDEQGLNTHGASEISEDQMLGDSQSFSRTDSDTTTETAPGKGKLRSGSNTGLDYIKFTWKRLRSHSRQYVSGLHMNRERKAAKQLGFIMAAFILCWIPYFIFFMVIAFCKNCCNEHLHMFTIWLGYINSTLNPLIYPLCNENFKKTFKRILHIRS
Method: To evaluate in radioligand binding assays the activity of compounds of the invention, human recombinant histamine H1 receptor expressed in Chinese hamster ovary (CHO) cells (De Backer, M. D. et al., Biochem. Biophys. Res. Comm. 197(3):1601, 1993) in a modified Tris-HCl buffer (50 mM Tris-HCl, pH 7.4, 2 mM MgCl2, 100 mM NaCl, 250 mM Sucrose) was used. Compounds of the invention were incubated with 1.2 nM [^3H]Pyrilamine for 180 minutes at 25° C. Non-specific binding was estimated in the presence of 1 μM pyrilamine. Receptor proteins were filtered and washed, the filters were then counted to determine [^3H]Pyrilamine specifically bound. Compounds were screened at 1 μM, using 1% DMSO as vehicle. Biochemical assay results are presented as the percent inhibition of specific binding in Table 5.

[4] = target: T4, human recombinant dopamine D2L receptor (Homo sapiens, UniProt P14416); experiment: Dopamine D2L radioligand binding ([3H]Spiperone); settings: compound at 1 μM; CHO cells; read-out: Dopamine (1 μM) D2L, percent inhibition of specific binding
T4 construct: expressed in transfected cells; host or cells: CHO cells
T4 sequence (P14416 whole entry): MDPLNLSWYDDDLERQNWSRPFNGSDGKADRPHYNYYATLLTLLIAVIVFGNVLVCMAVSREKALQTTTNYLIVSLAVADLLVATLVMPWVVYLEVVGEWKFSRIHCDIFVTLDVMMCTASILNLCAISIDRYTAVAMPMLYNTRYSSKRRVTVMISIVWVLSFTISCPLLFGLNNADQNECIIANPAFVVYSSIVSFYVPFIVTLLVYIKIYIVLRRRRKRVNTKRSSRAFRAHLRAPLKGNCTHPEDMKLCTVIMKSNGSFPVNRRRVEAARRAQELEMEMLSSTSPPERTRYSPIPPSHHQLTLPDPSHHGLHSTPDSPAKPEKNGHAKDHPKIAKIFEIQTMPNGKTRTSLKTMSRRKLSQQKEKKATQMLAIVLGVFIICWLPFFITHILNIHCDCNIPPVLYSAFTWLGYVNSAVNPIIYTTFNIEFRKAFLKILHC
Method: To evaluate in radioligand binding assays the activity of compounds of the invention, human recombinant dopamine D2L receptor expressed in Chinese hamster ovary (CHO) cells (Grandy, D. K. et al. Proc. Natl. Acad. Sci. USA. 86:9762, 1989; Hayes, G. et al., Mol. Endocrinol. 6:920, 1992) in a modified Tris-HCl buffer (50 mM Tris-HCl, pH 7.4, 1.4 mM Ascorbic Acid, 0.001% BSA, 150 mM NaCl) was used. Compounds of the invention were incubated with 0.16 nM [^3H]Spiperone for 120 minutes at 25° C. Non-specific binding was estimated in the presence of 10 μM Haloperidol. Receptor proteins were filtered and washed, the filters were then counted to determine [^3H]Spiperone specifically bound. Compounds were screened at 1 μM or lower, using 1% DMSO as vehicle. Biochemical assay results are presented as the percent inhibition of specific binding in Table 6.

With `CN1CCc2c(c3cc(Cl)ccc3n2CC(=O)OCc2ccccc2)C1` [Compound 13, benzyl 2-(8-chloro-1,2,3,4-tetrahydro-2-methylpyrido[4,3-b]indol-5-yl)acetate] the inhibition at 1 µM [1] was 97%, the inhibition at 1 µM [2] was 91% and the inhibition at 1 µM [3] was 96%. It also gave an inhibition at 1 µM [4] of 38%.
`CN1CCc2c(c3cc(Cl)ccc3n2CC(=O)OCC2CCCCC2)C1` [Compound 14, cyclohexylmethyl 2-(8-chloro-1,2,3,4-tetrahydro-2-methylpyrido[4,3-b]indol-5-yl)acetate] showed an inhibition at 1 µM [1] of 103%, an inhibition at 1 µM [2] of 94% and an inhibition at 1 µM [3] of 98%. The inhibition at 1 µM [4] was 31%.
Work on `CN1CCc2c(c3cc(Cl)ccc3n2CC(=O)OC2CCCC2)C1` [Compound 15] yielded an inhibition at 1 µM [1] of 95%, an inhibition at 1 µM [2] of 94% and an inhibition at 1 µM [3] of 99%. The inhibition at 1 µM [4] was 26%.
`CC(C)OC(=O)CCn1c2c(c3cc(Cl)ccc31)CN(C)CC2` [Compound 17, isopropyl 3-(8-chloro-1,2,3,4-tetrahydro-2-methylpyrido[4,3-b]indol-5-yl)propanoate] showed an inhibition at 1 µM [1] of 106%, an inhibition at 1 µM [2] of 91% and an inhibition at 1 µM [3] of 96%. For the same molecule, the inhibition at 1 µM [4] was 13%.
Molecule `CN1CCc2c(c3cc(Cl)ccc3n2CCC(=O)OCc2ccccc2)C1` [Compound 19, benzyl 3-(8-chloro-1,2,3,4-tetrahydro-2-methylpyrido[4,3-b]indol-5-yl)propanoate] has an inhibition at 1 µM [1] of 106%, an inhibition at 1 µM [2] of 96% and an inhibition at 1 µM [3] of 101%. The inhibition at 1 µM [4] was 31%.
`CN1CCc2c(c3cc(Cl)ccc3n2CCC(=O)OCC2CCCCC2)C1` [Compound 20, cyclohexylmethyl 3-(8-chloro-1,2,3,4-tetrahydro-2-methylpyrido[4,3-b]indol-5-yl)propanoate] gave an inhibition at 1 µM [1] of 103%, an inhibition at 1 µM [2] of 88% and an inhibition at 1 µM [3] of 95%. The inhibition at 1 µM [4] was 19%.
`CN1CCc2c(c3cc(Cl)ccc3n2CCC(=O)OC2CCCC2)C1` [Compound 21, cyclopentyl 3-(8-chloro-1,2,3,4-tetrahydro-2-methylpyrido[4,3-b]indol-5-yl)propanoate] showed an inhibition at 1 µM [1] of 103%, an inhibition at 1 µM [2] of 100% and an inhibition at 1 µM [3] of 98%. The inhibition at 1 µM [4] was 35%.
`CCNC(=O)Cn1c2c(c3cc(C)ccc31)CN(C)CC2` [Compound 22, N-ethyl-2-(1,2,3,4-tetrahydro-2,8-dimethylpyrido[4,3-b]indol-5-yl)acetamide] was tested, and the inhibition at 1 µM [1] was 58%, the inhibition at 1 µM [2] was 81% and the inhibition at 1 µM [3] was 85%. For the same molecule, the inhibition at 1 µM [4] was -2%.
Work on `Cc1ccc2c(c1)c1c(n2CC(=O)NC(C)C)CCN(C)C1` [Compound 23, 2-(1,2,3,4-tetrahydro-2,8-dimethylpyrido[4,3-b]indol-5-yl)-N-isopropylacetamide] yielded an inhibition at 1 µM [1] of 18%, an inhibition at 1 µM [2] of 37% and an inhibition at 1 µM [3] of 65%. For the same molecule, the inhibition at 1 µM [4] was 5%.
